Reference: patent US20240252463A1, “METHODS OF TREATING FIBROTIC PATHOLOGIES” (Mayo Foundation for Medical Education and Research, priority 2018, published 2024)
Where a name gives a salt, the structure may show the parent alone. Read-outs that look alike come from different tables or passages of the source.

Assays:
YAP/TAZ = YAP/TAZ nuclear localization (immunofluorescence, automated imaging) in IPF patient-derived lung fibroblasts; format: cell-based, human; settings: 10 μM, treated 2 hours prior to fixation; for Nuclear localization (% of total cells) IPF-1: patient sample IPF-1; for Nuclear localization (% of total cells) IPF-2: patient sample IPF-2; for Nuclear localization (% of total cells) IPF-3: patient sample IPF-3; for Nuclear localization (% of total cells) IPF-4: patient sample IPF-4
Method: 27A. […] IPF patient-derived lung fibroblasts cells treated 2 hours prior to fixation with diverse dopaminergic agonists (10 μM). N=4 different patient samples. % nuclear localization of YAP/TAZ was determined using automated imaging software. Scale bar represents 100 μm. 27C. cAMP measured in IPF patient-derived fibroblasts treated for 20 minutes with DHX. N=3. 27E.
(§1) ImmunofluorescenceMicroscopy: Cells were plated into 96 well plates (Corning 3603) in their specific growth media and allowed to attach (8 hours). Media was then exchanged for the indicated conditions for each experiment. Cells were fixed in 3.7% formalin (Sigma-Aldrich), permeabilized in 0.25% Triton X-100 (Sigma-Aldrich) and then blocked with 1% BSA for 1 h. Cells or tissue sections were incubated overnight with mouse monoclonal antibody against αSMA (Sigma-Aldrich F3777), and/or a rabbit monoclonal antibody against YAP/TAZ (Cell Signaling D24E4) diluted 1:200 in PBS with 1% BSA. Cells were then washed and exposed to flourescence-conjugated secondary antibodies (Invitrogen) diluted 1:1000 and DAPI (Thermo Fisher Scientific). Images were taken with a Cytation5 (BioTek) microscope. For scoring αSMA positive cells (FIG. 3b), an observer blinded to the treatment conditions counted αSMA-positive cells using a visual threshold for bright fibrous staining; a minimum of 200 cells was counted for each condition. YAP/TAZ localization was quantified (FIG. 2, 6, 8) using Gen5 (Biotek) software. Images were taken at 4× magnification of both DAPI and YAP/TAZ staining. […] Quantification of double positive (YAP/TAZ and αSMA) cells from lung tissue sections (FIG. 4d) was performed similarly; however separate thresholds were established for both YAP/TAZ and αSMA. A minimum of 4000 cells was quantified for each mouse.

αSMA = αSMA intensity (fibroblast activation) in IPF patient-derived lung fibroblasts + TGFβ; format: cell-based, human; settings: 1 μM + TGFβ, treated for 72 hours; for activity at 1 µM: Homo sapiens, SMA
Method: as §1

[1] = patient sample IPF-1, read-out: αSMA intensity (% of DMSO control) IPF-1
[2] = patient sample IPF-2, read-out: αSMA intensity (% of DMSO control) IPF-2
[3] = patient sample IPF-3, read-out: αSMA intensity (% of DMSO control) IPF-3
[4] = patient sample IPF-4, read-out: αSMA intensity (% of DMSO control) IPF-4

Row | Structure (SMILES) | Nuclear localization (% of total cells) IPF-1 (YAP/TAZ) | Nuclear localization (% of total cells) IPF-2 (YAP/TAZ) | Nuclear localization (% of total cells) IPF-3 (YAP/TAZ) | Nuclear localization (% of total cells) IPF-4 (YAP/TAZ) | αSMA intensity (% of DMSO control) IPF-1 (αSMA; patient sample IPF-1) | αSMA intensity (% of DMSO control) IPF-2 (αSMA; patient sample IPF-2) | αSMA intensity (% of DMSO control) IPF-3 (αSMA; patient sample IPF-3) | αSMA intensity (% of DMSO control) IPF-4 (αSMA; patient sample IPF-4) | activity at 1 µM (αSMA; [1]) [%] | activity at 1 µM (αSMA; [2]) [%] | activity at 1 µM (αSMA; [3]) [%] | activity at 1 µM (αSMA; [4]) [%]
1 | CCCN(CCc1ccccc1)C1CCc2c(O)cccc2C1.Cl (racemic) [(±)-2-(N-phenylethyl-N-propyl)amino-5-hydroxytetralin] | 68.85 % of total cells | 60.86 % of total cells | 68 % of total cells | 56.552 % of total cells | 65.43 % of DMSO control | 52.77 % of DMSO control | 60.4844 % of DMSO control | 51.1 % of DMSO control |  |  |  | 
2 | CCCN1CCO[C@@H]2c3cc(O)ccc3OC[C@H]21.Cl (racemic) [(±)-PD 128,907•HCl] | 60.13 % of total cells | 49.54 % of total cells | 78.48 % of total cells | 60.66 % of total cells | 83.68 % of DMSO control | 85.45 % of DMSO control | 94.2538 % of DMSO control | 75.15 % of DMSO control |  |  |  | 
3 | C=CCN1CCc2c(cc(O)c(O)c2Cl)C(c2ccccc2)C1 (racemic) [(±)-SKF-82958•HBr] | 29.15 % of total cells | 38 % of total cells | 38 % of total cells | 12.29 % of total cells |  |  |  |  | 11.8 | 4.97 | 2.43 | 9.33
4 | NCCc1cccc(O)c1 [3-Hydroxyphenethylamine•HCl, 3-Hydroxyphenethylamine] | 48.96 % of total cells | 56.92 % of total cells | 69.25 % of total cells | 58.37 % of total cells |  |  |  |  | 88.6 | 96.7 | 82.6 | 99.8
5 | NCCc1ccc(O)cc1 [4-Hydroxyphenethylamine•HCl, 4-Hydroxyphenethylamine] |  |  |  |  |  |  |  |  | 99.7 | 93.4 | 95.7 | 88.3
6 | Br.NC1CCc2cc(O)c(O)cc2C1 (stereo not drawn) [6,7-ADTN•HBr, 6,7-ADTN] | 43.89 % of total cells | 44 % of total cells | 65.5 % of total cells | 52.65 % of total cells | 37.14 % of DMSO control | 4.182 % of DMSO control | 9.909 % of DMSO control | 4.888 % of DMSO control |  |  |  | 
7 | CCCN(CCC)[C@@H]1CCc2c(OC)cccc2[C@@H]1C.O=C(O)/C=C\C(=O)O [(+)-UH 232 maleate] | 61.9521 % of total cells | 68 % of total cells | 71.85 % of total cells | 67.27 % of total cells | 82.91 % of DMSO control | 63.85 % of DMSO control | 85.81 % of DMSO control | 65.71 % of DMSO control |  |  |  | 
8 | NC[C@@H]1O[C@H](C23CC4CC(CC(C4)C2)C3)Cc2c1ccc(O)c2O [A-77636•HCl•H2O] | 26.46 % of total cells | 30.88 % of total cells | 41.33 % of total cells | 37.79 % of total cells |  |  |  |  | 5.81 | 0.719 | 0.0677 | 12.4
9 | C=CCN1CCc2nc(N)sc2CC1.Cl.Cl [B-HT 920•2HCl] | 75.68 % of total cells | 46.9 % of total cells | 64.79 % of total cells | 76.24 % of total cells | 74.98 % of DMSO control | 58.97 % of DMSO control | 70.12 % of DMSO control | 54.23 % of DMSO control |  |  |  | 
10 | CC(C)C[C@H]1C(=O)N2CCC[C@H]2[C@]2(O)O[C@](NC(=O)[C@@H]3C=C4c5cccc6[nH]c(Br)c(c56)C[C@H]4N(C)C3)(C(C)C)C(=O)N12 [Bromocriptine mesylate, Bromocriptine] |  |  |  |  |  |  |  |  | 54.1 | 53.6 | 61.1 | 34.1
